Experiment: Conversion of Form E on suspending and stirring in solvent (slurry)
Format: physicochemical
Text: The anhydrate crystal form (Form E) can be converted to other crystal forms under suitable conditions.

Compound: C=Cc1cc(O)cc2nc(-c3ccc(O)c(F)c3)oc12 [Form E, 2-(3-fluoro-4-hydroxyphenyl)-7-vinyl-1,3-benzoxazol-5-ol]
- crystal form conversion after suspension and stirring (suspended and stirred in acetone at room temperature for seven days): another anhydrate crystal form is obtained
- crystal form conversion after suspension and stirring (suspended and stirred in ethanol at room temperature for seven days): another anhydrate crystal form is obtained
- crystal form conversion after suspension and stirring (suspended and stirred in water at room temperature for seven days): converted to a hydrate crystal form
